The values below come from patent US4987125A, “Antithrombotic activity of the triterpenoids of ilex pubescens and the conversion method of the triterpenoids of ilex pubescens having no antithrombotic activity into the triterpenoids having antithrombotic activity” (Cheil Sugar & Co., Ltd., priority 1988, dated 1991).

Assay [1] deals with Malondialdehyde (MDA) produced by platelet. In words: Inhibition of malondialdehyde (MDA) generation by thrombin-stimulated platelets (TBA method). Format: cell-based, rats (Male Sprague-Dawley). To be noted: rat platelet. Here is the method: A platelet is agglutinated by the stimulus on thrombin. TXA2 is released by this stimulation, and it accelerated the agglutination of the platelet. And the malondialdehyde(MDA) is released with TXA2 . It is conducted whether the extract of the Ilex pubescens inhibits the production of MDA (Determination of Melondialdehyde) or not by the colorimetry method. As the extraction solvent, methanol, butanol and water are used. […] Their structures are as follows:
Male Sprague-Dawley rats, weightin 180-200 g, were used in experiment. Blood was collected by the same method with (test 1-2). 100 sample was let stand for 20 minutes, in polypropylene tube. It was centrifuged (1400 r.p.m. for 20 minutes) at 10° C. to obtain platelet rich plasma (PRP). PRP was recentrifuged (2800 r.m.p., for 20 minutes) at 10° C. to obtain precipitated platelet pellet. Platelet was suspended in 0.01 M of pH 7.4 phosphate buffer (1×10^9 cell/ml). To the platelet suspension, 100 µl of methanol extracts of Ilex pubescens was added and the reaction mixture was preincubated in thermostat of 37° C. for 20 minutes. 50 µl of thrombin (10 U) was then added to agglutinate the platelet, and thiobarbituric acid (TBA) was added as the couple. This reaction mixture was extracted by 2 ml of n-butanol and the n-butanol phase was separated by centrifugation (1200 r.p.m. for 10 minutes) at 30° C. The absorbance of n-butanol phase was observed by UV-spectrophotometer at 534 nm.
1 kg of root of Ilex pubescens was powdered and the powder of Ilex pubescens was extracted 4 times with each 500 ml of 70% methanol by heating in water bath. […] 12 g of methanol extract was suspended in the small amount of water and extracted with butanol several times. […] 12 g of methanol extract of Ilex pubescens, 4.1 g of butanol fraction and 6 g of water fraction were dissolved to 20 ml of methanol solutions, respectively. 1m1 of each solution was taken in test tube and methanol was removed under nitrogen atmosphere. Residue was suspended in 1m1 of 0.01 M phosphate buffer. 0.1 ml of suspension was used as sample.
*1 ml of washed platelet (1 × 10^9 cells/ml) of rats was
preincubated (37° C. for 30 minutes) with 0.1 ml of sample in 0.01
M phosphate buffer (pH 7.4, in normal saline). Then, to the agglutinated
platelet, 50 μl of bovine thrombin (10 U) was added.
**MDA was determined by the method of TBA. Each value is the mean of 2
Therefore, 4.1 g of butanol fraction was dissolved in 10 ml of methanol and chromatographed on Sephadex LH-20 column (Sigma Co., 3.8×66 cm) with methanol as eluant. After the first eluate (260 ml) corresponding to the void volume of the column was eluted, the eluate was collected in test tubes at the volume of 21ml. 12 fractions were obtained.
Each fraction was dissolved in 10 ml of methanol and 0.5 ml of methanol solution was taken. The solvent was evaporated under nitrogen atmosphere. The residue was suspended in 1m1 of 0.01 M phosphate buffer and 0.1m1 was used as sample. Inhibition of MDA generation was measured by the same method with Test 2-1).
*4.1 g of butanol extract was chromatographed on Sephadex LH20 column (3,
× 66 cm) with methanol as eluant.
**Each fraction was dissolved in 10 ml of methanol and 0.5 ml of solution

The subject of the next assay is thromboxane synthase. The settings on record: known property; cited from earlier work.

“Also recorded” adds a separate entry of the source.

Turning to `C[C@H]1CC[C@]2(C(=O)O)CC[C@]3(C)C(=CC[C@@H]4[C@@]5(C)CC[C@H](O[C@@H]6OC[C@@H](O)[C@H](O)[C@H]6O[C@@H]6O[C@H](CO)[C@@H](O)[C@H](O)[C@H]6O)C(C)(C)[C@@H]5CC[C@]43C)[C@@H]2[C@]1(C)O` [Ilexoside D], the “inhibition of MDA generation, result in words” value (shortened to “inhibition of MDA generation”) in assay [1] is “exhibited the greatest antithrombic activity”; in assay [1] (listed as ilexoside D), “effective; also recorded: inhibits MDA production”.
With `C[C@H]1CC[C@]2(C(=O)O[C@@H]3O[C@H](CO)[C@@H](O)[C@H](O)[C@H]3O)CC[C@]3(C)C(=CC[C@@H]4[C@@]5(C)CC[C@H](O[C@@H]6OC[C@@H](O)[C@H](O)[C@H]6O[C@@H]6O[C@H](CO)[C@@H](O)[C@H](O)[C@H]6O)C(C)(C)[C@@H]5CC[C@]43C)[C@@H]2[C@]1(C)O` [Ilexoside K], the “inhibition of MDA generation” value in assay [1] is recorded as “had no effect; also recorded: ineffective”.
As for `C[C@@H]1O[C@@H](O[C@H]2[C@H](O[C@H]3[C@H](O[C@H]4CC[C@]5(C)[C@H]6CC=C7[C@H]8[C@](C(=O)O[C@@H]9O[C@H](CO)[C@@H](O)[C@H](O)[C@H]9O)(CC[C@H](C)[C@@]8(C)O)CC[C@@]7(C)[C@]6(C)CC[C@H]5C4(C)C)OC[C@@H](O)[C@@H]3O)O[C@H](CO)[C@@H](O)[C@@H]2O)[C@H](O)[C@H](O)[C@H]1O` [Ilexoside O], the entries for the “inhibition of MDA generation” value in assay [1] and in assay [1] (listed as ilexoside O) were “exhibited no effect” and “ineffective”, respectively.
`c1c[nH]cn1` [Imidazole]: in the assay with thromboxane synthase, the “inhibition of thromboxane synthase, in words” value is given as “known as the inhibitor of thromboxane synthase”.
Turning to `CC1CCC2(C(=O)O)CCC3(C)C(=CCC4C5(C)CCC(O)C(C)(C(=O)O)C5CCC43C)C2C1(C)O` (stereo not drawn) [Pubescenic acid], in assay [1] (isolated components, imidazole as control), the “IC50 (concentration inhibiting 50% of MDA generation)” value amounted to 0.41 mg. In assay [1], the “inhibition of MDA generation” value is given as “inhibits MDA production”.
On to Prosapogenin A, for which the “inhibition of MDA generation” value in assay [1] is reported as “did not inhibit MDA generation”.
